This is an account of results in patent US20040091933A1, “Methods for genetic interpretation and prediction of phenotype” (priority 2003, published 2004).

The structures appear in SMILES notation.

This test deals with yeast. The test can be described thus: Comparison of the transcript profile of clotrimazole-treated yeast with landmark transcript profiles of yeast mutants (correlation coefficient r). The format is cell-based. The settings on record: transcript abundances relative to wild-type. How it is done:
FIG. 2(a-f) illustrates the correlation between the transcriptional response profile of yeast treated with clotrimazole and the transcriptional response profiles of yeast with perturbations in SWI4, RPD3, CNA1 CNA2, HMG2 and ERG11 genes. A straight line (higher correlation coefficient, r) indicates the greatest similarity.
In a preferred embodiment, the similarity between profiles is measured by a weighted correlation coefficient, r, given by Equation 4: [formula]
xik is […] and xjk is qjk/σjk, where qik and qjk are the logarithms of the expression ratios between the perturbed and baseline conditions for gene k in profiles i and j, respectively, and σik and σjk are the expected root mean square uncertainties in the measurements of qik and qjk, respectively. This is an optimally-weighted measure of correlation between two profiles, given the error estimate, σ, on each data point.
In many cases, the particular gene in the pathway that is responsible for a particular phenotype can be identified. […]

For the molecule `Clc1ccccc1C(c1ccccc1)(c1ccccc1)n1ccnc1` [clotrimazole], the “correlation coefficient r between clotrimazole transcriptional response and landmark profile” value worked out at 0.96 (landmark: yeast having a disruption of the ERG11 gene (FIG. 2f)) and 0.83 (landmark: yeast having a disruption of the HMG2 gene (FIG. 2e)).
